Source: patent publication EP0102509A1, “Oxamid-acid derivatives, process for their preparation and therapeutical agents containing them” (BASF Aktiengesellschaft, priority 1982, dated 1984)

Test system: passiven cutanen Anaphylaxie (PCA)
Assay: Passive cutaneous anaphylaxis (PCA) in rats, oral administration
Format: in vivo, Ratte
Conditions: for ED50: read-out: Hemmung der PCA ED 50 %; for Hemmung der PCA R.W.: relative potency after oral administration, comparison compound A = 1.00
Description: Die antiallergische Wirkung wurde an Ratten getestet. Zur Prüfung wurde das Modell der passiven cutanen Anaphylaxie (PCA) verwendet: • Narkotisierte männliche Ratten (100 - 140 g) werden durch intradermale Injektion (rasierte Rückenhaut) von 0,1 ml eines Ovalbumin-Antiserums sensibilisiert. Nach einer Sensibilisierüngsdauer von ca. 48 h erfolgt die Behandlung (orale Applikation) mit unterschiedlichen Dosierungen (10 Tiere/Dosis) der Prüfsubstanzen. 15 bzw. 20 min nach der Behandlung wird eine Antigen/Evansblau-Mischung (10 mg/kg Ovalbumin in 2%iger Evansblau-Lösung) den Versuchstieren intravenös injiziert. 30 min später werden die Tiere getötet, die Rückenhaut abgezogen und auf der inneren Oberfläche der Durchmesser der kreisförmigen Blaufärbung gemessen. Die Größe der Farbflecke unbehandelter Kontrolltiere ist standardisierbar. Antiallergisch wirksame Substanzen verkleinern dosisabhängig den Durchmesser der Farbflecke. Als ED-50 % wird die Dosis angegeben, die im Vergleich zu medikamentös unbehandelten Kontrolltieren den Durchmesser der Farbflecke um 50 % herabsetzt.

[1] = oral administration, rat, dose that reduces the diameter of the dye spots by 50 % vs untreated controls

Row | Compound | ED50 [1] | Hemmung der PCA R.W. | Hemmung der PCA R.W. (listed as Bsp. 2) | Antiallergische Wirkung (bis 100 mg/kg p.o., rat PCA) | Hemmung der PCA ED 50 % [1] | Hemmung der PCA R.W. (listed as Bsp. 3)
1 | CCOCCOC(=O)C(=O)Nc1cccc(NC(=O)C(=O)OCCOCC)c1 [Beispiel 2, N,N'-(1,3-Phenylen)-dioxamidsäure-2-ethoxyethylester] | 2.77 mg/kg | 3.10 | 3,10 | – | – | –
2 | O=C(O)c1cc(=O)c2c(OCC(O)COc3cccc4oc(C(=O)O)cc(=O)c34)cccc2o1 [Cromolyne, reference compound] | > 100 mg/kg | – | – | unwirksam | – | –
3 | N,N'-(1,3-Phenylen)-dioxamidsäure-2-butoxyethylester [Beispiel 3] | – | ca. 1.85 | – | – | ca. 4.64 mg/kg | 1,85
